Data reported in US10653676B2 (Dana-Farber Cancer Institute, Inc., priority 2010, dated 2020).
Read-outs that look alike come from different tables or passages of the source.

How the values were obtained:
[1] = test system: FANCD2-Ub and FANCI-Ub levels in HeLa cells; experiment: cell-based assay of monoubiquitinated FANCD2 and FANCI levels by immunoblotting; set-up: species or system human; conditions: eight hours, increasing concentrations, FIG. 3
Method: Candidate USP1 inhibitors from initial and secondary screens were then used in cell-based assays to look for USP1 inhibition in vivo using levels of FANCD2-Ub and PCNA-Ub as biomarkers for inhibition. For the cell-based assay, cells were treated with the candidate compounds and levels of monoubiquitinated FANCD2 and PCNA were tested both with and without DNA damage. USP1 inhibition was detected as high level of endogenous monoubiquitinated FANCD2 and PCNA. For this assay HeLa and HEK293T cells were treated with selected concentrations of these compounds and grown in Dulbecco's modified Eagle's medium supplemented with 15% heat-inactivated fetal calf serum in a humidified 5% CO2 incubator at 37° C. Damage was induced by both UV irradiation using Stratalinker (Stratagene) and treatment with mitomycin C (MMC, Sigma). After cell lysis, levels of monoubiquitinated FANCD2 and PCNA in whole cell lysate was tested by immunoblotting with anti-FANCD2 antibody (sc-20022; Santa Cruz Biotechnology) and anti-PCNA antibody (sc-56; Santa Cruz Biotechnology). Protection from chromosome aberrations were also tested in UV/MMC-damaged cells treated with candidate USP1 inhibitors using standard chromosome breakage assay. Yang et al. (2001) Blood 98:3435-40. […]

[2] = test system: HeLa cells; experiment: camptothecin-induced RAD51 and H2AX foci formation, immunofluorescence; type: cell-based, human; conditions: camptothecin for 1 hr after pre-treatment; FIG. 8C
Method: (§1) FIG. 8 is a composite figure showing that C527 inhibits homologous recombination repair. […] U2OS-DRGFP cells were transfected with I-SCE-I and then exposed to C527 at the indicated concentration for 24 h. Cells were then subjected to flow cytometry analysis. The percentage of GFP positive cells was normalized by solvent vehicle treated group. […] HeLa cells, integrated with the NHEJ reporter, were treated with C527 and analyzed as described in (FIG. 8A). […] HeLa cells were pre-treated with DMSO or C527 at the indicated concentration and then exposed to camptothecin (CPT) for 1 hr. RAD51 foci were detected using immunofluorescence.
Cells were pre-extracted with extraction buffer (0.25% Triton-X100 in 200 mM HEPES at pH 7.4, 50 mM NaCl, 3 mM MgCl2 and 300 mM sucrose) on ice for 2 min prior to fixation with 4% paraformaldehyde. RAD51 foci were detected using anti-RAD51 antibody (Santa Cruz Biotechnology) and visualized using Alexa Fluor 488-conjugated secondary antibody. The quantification of cells with RAD51 foci was performed by counting the number of cells with RAD51 foci. At least 200 cells were counted from each sample. Data are represented as mean±SD from three independent experiments.
Camptothecin activated the assembly of RAD51 and H2AX foci.

[3] = biological target: T1, USP1/UAF1 complex (Homo sapiens, UniProt O94782, G670A/G671A); experiment: ubiquitin-AMC in vitro deubiquitination enzyme assay; type: biochemical
T1 construct: This modified full length USP1 clone was PCR amplified and subcloned into pFastBac-HT vectors; His tag (N); made in house; host or cells: Sf9 insect cells (baculovirus)
Method: Purified USP1/UAF1 complex was incubated with 1 μM C527 or DMSO for indicated time, followed by the addition of Ub-AMC at 0.5 μM final concentration. The fluorescence at […] was measured to indicate the enzymatic activity of USP1. […] 5A.
The in vitro enzymatic assays were performed using purified proteins from Sf9 cells as described previously (Cohn et al.). The assays using ubiquitin-AMC (Ub-7-amido-4-methylcoumarin; Boston Biochem) as substrate was carried out in a reaction buffer containing 20 mM HEPES-KOH (pH 7.8), 20 mM NaCl, 0.1 mg/ml ovalbumin, 0.5 mM EDTA and 10 mM dithiothreitol. The fluorescence was measured by FluoStar Galaxy Fluorometer (BMG Labtech). For the Ub-vinylsulfone (VS) assay, the proteins were incubated with Ub-VS at 0.5 μM final concentration for 1 h at 30° C., followed by the immunoblotting analysis.
In order to develop a highly sensitive assay with easy readout for high throughput detection, the fluorogenic compound Ubiquitin-7-amido-4-methylcoumarin (AMC-Ub, Boston Biochem) was used as a substrate for USP1/UAF1 enzyme complex. USP1 catalyzes the cleavage of AMC-Ub, releasing free AMC moiety, which leads to increase in fluorescence emission at 460 nm (λex=380 nm). Dang et al. (1998) Biochemistry 37:1868-79. […] Initial enzyme assay development was performed in 96-well plates with 100 μl reaction volume containing 20 mM HEPES-KOH, 0.1 mg/ml ovalbumin (Sigma), 0.5 mM EDTA, and 10 mM DTT. 2.5 nM USP1/UAF1 enzyme complex was mixed with the reaction buffer, incubated at 37° C. for 10 minutes and then 0.3 μM AMC-Ub was added. Fluorescence was measured using a Fluostar Galaxy Fluorometer (BMG Labtech Inc.).
Hits from the initial screening were analyzed further in secondary screening. In this step, the compounds were re-tested for inhibition using the AMC-Ub in vitro enzyme assay. After reconfirming inhibition, different concentration range of the inhibitors were tested to show dose dependency of inhibition and IC50 calculation.

[4] = test system: U2OS-DRGFP cells; experiment: DR-GFP reporter gene conversion assay for homologous recombination repair; type: cell-based; conditions: 24 h exposure; inhibition in the 0 to 5 μM range; FIG. 8A
Method: as §1
HR repair activity was analyzed using DR-GFP reporter as previously described (Pierce A J et al, Genes Dev, 13: 2633). U2OS-DRGFP cells carrying a chromosomally integrated single copy of HR repair substrate were used to test the effect of C527 on HR. DSB-induced HR results in restoration and expression of GFP and was quantified by FACS. Briefly, 24 h after induction of chromosomal double-strand breaks through the expression of I-SceI, cells were treated with C527 for 24 h. Cells were subjected to FACS analysis and the percentage of GFP-positive cells was quantitated relative to the total viable cell number. For each analysis, 100,000 cells were processed. […]

T1 sequence (O94782 whole entry G670A/G671A): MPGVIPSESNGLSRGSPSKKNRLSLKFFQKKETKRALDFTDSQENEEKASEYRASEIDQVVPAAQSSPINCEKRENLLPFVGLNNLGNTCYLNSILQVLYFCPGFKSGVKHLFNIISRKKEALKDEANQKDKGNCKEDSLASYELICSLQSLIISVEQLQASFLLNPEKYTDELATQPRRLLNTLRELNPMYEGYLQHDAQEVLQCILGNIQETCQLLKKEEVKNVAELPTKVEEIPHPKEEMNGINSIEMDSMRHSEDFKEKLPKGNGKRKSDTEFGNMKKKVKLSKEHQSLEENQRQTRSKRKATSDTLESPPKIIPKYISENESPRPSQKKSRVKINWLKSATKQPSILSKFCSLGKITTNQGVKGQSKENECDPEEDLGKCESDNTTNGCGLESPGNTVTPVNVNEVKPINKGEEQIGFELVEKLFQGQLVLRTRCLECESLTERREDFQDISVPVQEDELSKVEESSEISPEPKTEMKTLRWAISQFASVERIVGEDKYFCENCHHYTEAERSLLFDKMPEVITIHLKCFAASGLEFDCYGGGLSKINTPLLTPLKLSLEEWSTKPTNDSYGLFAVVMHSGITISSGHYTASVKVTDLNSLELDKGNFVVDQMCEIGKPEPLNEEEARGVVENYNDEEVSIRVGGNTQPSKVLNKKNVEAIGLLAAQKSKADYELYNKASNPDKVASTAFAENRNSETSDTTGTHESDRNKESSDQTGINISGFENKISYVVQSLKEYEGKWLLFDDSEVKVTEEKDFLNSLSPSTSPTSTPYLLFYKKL
T1 sequence (Q8TAF3 whole entry partner): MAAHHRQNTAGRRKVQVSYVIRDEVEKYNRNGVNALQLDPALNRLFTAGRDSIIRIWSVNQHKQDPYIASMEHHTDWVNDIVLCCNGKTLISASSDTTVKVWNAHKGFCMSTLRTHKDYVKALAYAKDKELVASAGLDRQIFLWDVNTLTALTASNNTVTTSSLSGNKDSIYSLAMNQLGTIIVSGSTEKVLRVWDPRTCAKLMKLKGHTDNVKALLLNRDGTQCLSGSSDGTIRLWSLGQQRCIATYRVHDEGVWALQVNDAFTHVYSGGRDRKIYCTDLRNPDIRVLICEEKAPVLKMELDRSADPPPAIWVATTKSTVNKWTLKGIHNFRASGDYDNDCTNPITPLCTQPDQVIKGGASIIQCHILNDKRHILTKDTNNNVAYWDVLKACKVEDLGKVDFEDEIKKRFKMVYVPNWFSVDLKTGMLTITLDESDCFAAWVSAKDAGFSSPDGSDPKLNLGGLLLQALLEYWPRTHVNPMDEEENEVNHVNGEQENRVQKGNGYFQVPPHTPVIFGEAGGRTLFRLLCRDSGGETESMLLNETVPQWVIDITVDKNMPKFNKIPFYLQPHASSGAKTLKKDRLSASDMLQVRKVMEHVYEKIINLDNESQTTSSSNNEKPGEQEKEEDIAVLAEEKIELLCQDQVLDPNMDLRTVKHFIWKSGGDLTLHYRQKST

**Q.** How did the FANCD2-Ub levels [1] turn out when `O=C1c2ccccc2C(=O)c2oc(-c3ccc(F)cc3)nc21` [Formula IV (527)] was run?
**A.** dose-dependent increase

**Q.** What about the FANCI-Ub levels [1] of the same compound?
**A.** dose-dependent increase

**Q.** And the H2AX foci formation [2]?
**A.** non-detectable effect

**Q.** What about the RAD51 foci formation [2] of the same compound?
**A.** inhibited RAD51 foci formation

**Q.** What about the IC50 ([3]; 4 hour preincubation, AMC-Ub in vitro enzyme assay, read-out: IC50) of the same compound?
**A.** 134 nM

**Q.** And the “inhibition of DUB activity (fluorescence) with pretreatment time” value ([3]; single dose 1 uM, variable time periods, FIG. 5A)?
**A.** serial increase in inhibition of DUB activity

**Q.** And the “DUB activity with increasing dose” value ([3]; treatment for 2 h, 0.5 to 2 μM, FIG. 5B)?
**A.** dose-dependent decrease in DUB activity

**Q.** What about the IC50 ([3]; ubiquitin-AMC substrate, FIG. 5C, read-out: IC50 of C527 for the USP1/UAF1 complex) of the same compound?
**A.** 880 ± 30 nM

**Q.** And the “gene conversion (cellular GFP), HR activity” value [4]?
**A.** dose-dependent decreased in gene conversion
